Source: patent US20120165319A1, “INHIBITORS OF INTERLEUKIN-1 BETA CONVERTING ENZYME” (VERTEX PHARMACEUTICALS INCORPORATED, priority 1995, published 2012)
Where “and” joins values, the source holds several entries; their conditions need not be identical. Identical values can stand only once. Entries after “also recorded” stand apart in the source; their conditions may differ. Like-named read-outs stand apart in the source and are kept apart here.

Legend:
[1] = Pharmacokinetic studies in the mouse (i.v. clearance, plasma levels); type: in vivo; conditions: for clearance: CD-1, plasma; for clearance / concentration at 2 min: iv; for Clearance Mouse, i.v. / clearance / concentration at 2 min: mouse; for concentration at 2 min: plasma, read-out: mean plasma level at 2 minutes
Experimental: Pharmacokinetic Studies in the Mouse
Sample Preparation and Dosing
Compounds were dissolved in sterile TRIS solution (0.02M or 0.05M) at a concentration of 2.5 mg/ml. Where necessary to ensure a complete solution, the sample was first dissolved in a minimum of dimethylacetamide (maximum of 5% of total solution volume) then diluted with the TRIS solution.
The drug solution was administered to CD-1 mice (Charles River Laboratories—26-31 g) via the tail vein at a dose volume of 10 ml/kg giving a drug dose of 25 mg/kg.
Mice were dosed in groups of 5 for each timepoint (generally from 2 minutes to 2 hours) then at the appropriate time the animals were anaesthetised with halothane and the blood collected into individual heparinized tubes by jugular severance. The blood samples were cooled to 0° C. then the plasma separated and stored at −20° C. until assayed.
Drug concentration in the plasma samples were determined by HPLC analysis with UV or MS (ESP) detection. Reverse phase chromatography was employed using a variety of bonded phases from C1 to C18 with eluents composed of aqueous buffer/acetonitrile mixtures run under isocratic conditions.
Quantitation was by external standard methods with calibration curves constructed by spiking plasma with drug solutions to give concentrations in the range of 0.5 to 50 μg/ml.
Prior to analysis the plasma samples were deproteinated by the addition of acetonitrile, methanol, trichloroacetic acid or perchloric acid followed by centrifugation at 10,000 g for 10 minutes. Sample volumes of 20 μl to 50 μl were injected for analysis.
The drug was dissolved in sterile 0.02M Tris to give a 2.5 mg/ml solution which was administered to […] of 5 male CD-1 mice via the tail vein at a dose of 25 mg/kg. At each of the following timepoints: 2, 5, 10, 15, 20, 30, 45, 60, 90 and 120 minutes a group of animals was anaesthetised and the blood collected into heparinized tubes. After separation the plasma was stored at −20° C. until assayed.
Aliquots of plasma (150 μl) were treated with 5% perchloric acid (5 μl) then mixed by vortexing and allowed to stand for 90 minutes prior to centrifugation. The resulting supernatant was separated and 20 μl was injected for HPLC analysis.
Aliquots of plasma (100 μl) were diluted with acetonitrile (100 μl) then mixed by vortexing for 20 seconds before centrifugation for 10 minutes. The resulting supernatant was separated and 20 μl was injected for HPLC analysis.

[2] = In vivo rat clearance assay; conditions: for clearance: plasma, iv, 10-20 mg/kg
Procedure, shortened: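 Rats cannulated a day beforehand received 10–20 mg/kg by intravenous jugular dosing in propylene glycol/saline with 100 mM sodium bicarbonate. Carotid blood was sampled from 0 to 90 min, and plasma was extracted with acetonitrile/0.1% TFA for HPLC quantification. Clearance from non-linear regression pharmacokinetic analysis.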

ICE = biological target: T1, ICE (Homo sapiens, UniProt P29466); assay: Enzyme assay with UV-visible substrate (visible ICE assay, Succinyl-Tyr-Val-Ala-Asp-pNitroanilide); type: biochemical; conditions: Table 5
T1 sequence (P29466 120-297 limits assumed): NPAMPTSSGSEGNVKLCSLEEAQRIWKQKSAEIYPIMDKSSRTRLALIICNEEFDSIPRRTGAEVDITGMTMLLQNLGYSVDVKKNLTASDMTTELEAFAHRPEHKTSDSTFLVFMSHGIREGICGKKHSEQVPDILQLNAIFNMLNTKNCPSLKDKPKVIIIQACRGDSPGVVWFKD
T1 sequence (P29466 317-404 limits assumed): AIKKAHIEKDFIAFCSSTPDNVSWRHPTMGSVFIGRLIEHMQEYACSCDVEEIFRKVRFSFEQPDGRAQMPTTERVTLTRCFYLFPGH
Procedure, shortened: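 Buffer, ICE and inhibitor in DMSO are combined and held 15 min at room temperature. Succinyl-Tyr-Val-Ala-Asp-pNA is then added and absorbance at 405-603 nm tracked for 20 min at 37° C.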

[3] = test system: IL-1β production, LPS-challenged mice; assay: In vivo acute assay for efficacy as anti-inflammatory agent: LPS-induced IL-1β production in mice; parameters: species or system mouse; conditions: for IP % Inhibition / POS Inhibition: % inhibition of IL-β production, 50 mg/kg (Table 3); for inhibition of IL-1β secretion/production after IP administration: LPS-challenged CD1 mice, IP injection one hour after LPS; for percent inhibition of IL-1β production / inhibition at 50 mg/kg: compound PO; for inhibition at 50 mg/kg: po, read-out: percent inhibition of IL-1β production
Procedure, shortened: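 Serum IL-1β was measured by ELISA 7 h after an IP dose of 20 mg/kg LPS in CD1 mice, n=6 per group. Compounds in olive oil/DMSO/ethanol 90:5:5 were injected IP 1 h post-LPS (some analogs were dosed at challenge), and separate groups received 50 mg/kg by oral gavage.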

[4] = male CD-1 mice, i.v. tail vein, 25 mg/kg
[5] = LPS challenged mice, PO, 50 mg/kg, * = values obtained in subsequent assays (Table 4)

Row | Compound | Ki (ICE) [µM] | clearance ([1]; 25 mg/kg) [mL/min/kg] | clearance [2] [mL/min/kg] | also measured
1 | O=C(O)C[C@H](NC(=O)[C@@H]1CCCN2C(=O)CC[C@H](NC(=O)CCc3ccccc3)C(=O)N12)C(=O)CSCc1ccccc1Cl [Compound 125b, [3S(1S,9S)]-3-(6,10-dioxo-1,2,3,4,7,8,9,10-octahydro)-9-(3-phenylpropionyl-amino)-6H-pyridazine[1,2-a][1,2]diazepine-1-carboxamido-5-(2-chlorophenyl-methylthio)-4-oxopentanoic acid] | – | – | – | melting point: 76 to 80 °C
2 | [3S(1S,9S)]3-[(6,10-Dioxo-9-(methanesulphonylamino)-1,2,3,4,7,8,9,10-octahydro-6H-pyridazino[1,2-a][1,2]diazepine-1-carboxamido]-5-(5-methyl-3-phenylisoxazoyloxy)-4-oxopentanoic acid [505 b] | – | – | – | Clearance Mouse, i.v. ([1]; Table 18): 161 mL/min/kg; Clearance Rat, i.v. ([2]; Table 18): 196 mL/min/kg
3 | O=C[C@H](CC(=O)O)NC(=O)[C@@H]1CCCN2C(=O)CC[C@H](NC(=O)c3ccsc3)C(=O)N12 [Compound 410] | 0.017 | 32 | 20 | –
4 | O=C(O)CC(NC(=O)[C@@H]1CCCN2C(=O)CC[C@H](NC(=O)c3ccccc3)C(=O)N12)C(=O)CF (stereo partly drawn) [Compound 230e, [3RS,(1S,9S)]3-(9-Benzoylamino-6,10-dioxo-1,2,3,4,7,8,9,10-octahydro-6H-pyridazino[1,2-a][1,2]-diazepine-1-carboxamido)-5-fluoro-4-oxopentanoic acid] | – | – | – | Clearance Mouse, i.v. ([1]; 25 mg/kg): 67 mL/min/kg
5 | O=C[C@H](CC(=O)O)NC(=O)[C@@H]1CCCN2C(=O)CCN(NC(=O)c3ccccc3)C(=O)N12 [Compound 265, [3S(4S)]3-(7-Benzamido-6,10-dioxo-1,2,3,4,7,8,9,10-octahydro-6H-pyridazino[1,2-a][1,2,4]triazepine-4-carboxamido)-4-oxobutanoic acid] | 0.047 | 23 | 20 | IP % Inhibition ([3]; LPS-challenged mice): 30%; POS Inhibition ([3]; LPS-challenged mice, PO): 27%
6 | COC(=O)N[C@H]1CCC(=O)N2CCC[C@@H](C(=O)N[C@@H](CC(=O)O)C(=O)COC(=O)c3c(Cl)cccc3Cl)N2C1=O [Compound 284, [3S(1S,9S)]5-(2,6-Dichlorobenzoyloxy)-3-[6,10-dioxo-9-(methoxycarbonyl)amino-1,2,3,4,7,8,9,10-octahydro-6H-pyridazino[1,2-a][1,2]diazepine-1-carboxamido]-4-oxopentanoic acid] | – | 77 | 100 | –
7 | CC(=O)N1C[C@H](NC(=O)c2ccc3ccccc3c2)C(=O)N(CC(=O)N[C@H](C=O)CC(=O)O)c2ccccc21 [Compound 605n] | 0.012 | 28 | – | –
8 | COc1cccc2nc(C(=O)[C@H](CC(=O)O)NC(=O)[C@@H]3CCCN4C(=O)CC[C@H](NC(=O)CCc5ccccc5)C(=O)N34)oc12 [Compound 135a] | – | > 100 | – | –
9 | O=C[C@H](CC(=O)O)NC(=O)[C@@H]1CCCN2C(=O)CC[C@H](NC(=O)CCc3ccccc3)C(=O)N12 [Compound 47a, [3S(1S,9S)]3-(6,10-Dioxo-octahydro-9-(3-phenylpropionylamino)-6H-pyridazino[1,2-a][1,2]diazepine-1-carboxamido)-4-oxobutanoic acid] | – | 79 | 32 | –
10 | CC(=O)N[C@H]1CCC(=O)N2CCC[C@@H](C(=O)N[C@@H](CC(=O)O)C(=O)COC(=O)c3c(Cl)cccc3Cl)N2C1=O [Compound 217c, [3S(1S,9S)]3-(9-Acetylamino-6,10-dioxo-1,2,3,4,7,8,9,10-octahydro-6H-pyridazino-[1,2-a][1,2]diazepine-1-carboxamido)-5-(2,6-dichlorobenzoyloxy)-4-oxopentanoic acid] | – | 70 | – | –
11 | N#C[C@H](CC(=O)O)NC(=O)[C@@H]1CCCN2C(=O)CC[C@H](NC(=O)c3ccccc3)C(=O)N12 [Compound 232e, [3S(1S,9S)]9-(Benzoylamino)-3-[6,10-dioxo-1,2,3,4,7,8,9,10-octahydro-6H-pyridazino-[1,2-a][1,2]diazepine-1-carboxamido]-3-cyanopropanoic acid] | 1.1 | 22 | 26 | –
12 | O=C(O)C[C@H](NC(=O)[C@@H]1CCCN2C(=O)CC[C@H](NC(=O)c3ccccc3)C(=O)N12)C(=O)COC(=O)c1c(Cl)cccc1Cl [Compound 217e, [3S(1S,9S)]3-(9-Benzoylamino-6,10-dioxo-1,2,3,4,7,8,9,10-octahydro-6H-pyridazino[1,2-a][1,2]-diazepine-1-carboxamido)-5-(2,6-dichlorobenzoyloxy)-4-oxopentanoic acid] | – | > 50 | – | mean plasma concentration at 60-120 minutes [1, 4]: < 0.2 µg/mL; concentration at 2 min [1, 4]: ~55 µg/mL; inhibition of IL-1β secretion/production after IP administration ([3]; result in words): significant inhibition; also recorded: inhibits IL-1β production
13 | O=C[C@H](CC(=O)O)NC(=O)[C@@H]1CCCN2C(=O)CC[C@H](NC(=O)c3ccccc3)C(=O)N12 [Compound 214e, [3S(1S,9S)]3-(9-Benzoylamino-6,10-dioxo-1,2,3,4,7,8,9,10-octahydro-6H-pyridazino[1,2-a][1,2]-diazepine-1-carboxamido)-4-oxobutanoic acid] | 0.0075 | 23 | 12 | mean plasma level at 90 and 120 minutes [1, 4]: < 2 µg/mL; concentration at 2 min [1, 4]: 70 µg/mL; IP % Inhibition ([3]; LPS-challenged mice): 78%; POS Inhibition ([3]; LPS-challenged mice, PO): 75%; Inhibition of IL-1β Production, compound administered 0 hr relative to LPS challenge [3, 5]: 48* % and 80* %; Inhibition of IL-1β Production, compound administered −1 hr relative to LPS challenge [3, 5]: 44* %; Inhibition of IL-1β Production, compound administered −2 hr relative to LPS challenge [3, 5]: 43* % and 39* %; percent inhibition of IL-1β production ([3]; LPS challenged mice, 50 mg/kg, administered 0 h relative to time of LPS challenge): 70% and 48%; percent inhibition of IL-1β production ([3]; LPS challenged mice, 50 mg/kg, administered −2 h relative to time of LPS challenge): 43%; inhibition of IL-1β secretion/production after IP administration ([3]; result in words): dose dependent inhibition; also recorded: inhibit IL-1β production; inhibition of IL-1β secretion/production after oral (PO) administration ([3]; LPS-challenged mice, oral gavage, 50 mg/kg, result in words): inhibited IL-1β secretion; also recorded: inhibit IL-1β production; inhibition at 50 mg/kg ([3]; Mus musculus, 1 h, LPS challenged mice, 50 mg/kg, administered −1 h relative to time of LPS challenge): 44%; inhibition at 50 mg/kg ([3]; Mus musculus, 2 h, LPS challenged mice, 50 mg/kg, administered −2 h relative to time of LPS challenge): 39%; ED50 ([3]; Mus musculus, CD1 mice, LPS 20 mg/kg IP, compound IP one hour after LPS, blood seven hours after LPS, read-out: ED50, inhibition of IL-1β secretion): ~15 mg/kg
14 | O=C(O)C[C@H](NC(=O)[C@@H]1CCCN2C(=O)CC[C@H](NC(=O)CCc3ccccc3)C(=O)N12)C(=O)COC(=O)c1c(Cl)cccc1Cl [Compound 136] | – | 93 | – | –
15 | CS(=O)(=O)N[C@H]1CCC(=O)N2CCC[C@@H](C(=O)N[C@@H](CC(=O)O)C(=O)COC(=O)c3c(Cl)cccc3Cl)N2C1=O [Compound 138] | – | 116 | – | –
